The nature of data set [1]: logP by HPLC on reversed-phase column (C18), EEC Directive 79/831 Annex V.A8. Type of data set: physicochemical. The note with it: for Log P: pH 2.7. As to the method: The logP values reported in the preparation examples and tables above are determined in accordance with EEC Directive 79/831 Annex V.A8 by means of HPLC (High Performance Liquid Chromatography) on a reversed-phase column (C18). Temperature: 43° C. […] Calibration takes place using unbranched alkan-2-ones (having 3 to 16 carbon atoms) of which the logP values are known (logP values determined on the basis of the retention times, by linear interpolation between two successive alkanones). The lambda-max values were determined on the basis of the UV spectra from 200 nm to 400 nm in the maxima of the chromatographic signals.

A further data set relates to Alternaria solani. Description: Alternaria test (tomato)/protective. The note with it: young tomato plants, protective spray, 1500 ppm, evaluation 7 days following inoculation. Format: in vivo. The text has this: Alternaria Test (Tomato)/Protective • Solvent: 49 parts by weight of N,N-dimethylformamide • Emulsifier: 1 part by weight of alkylaryl polyglycol ether An appropriate preparation of active compound is produced by mixing 1 part by weight of active compound with the stated amounts of solvent and emulsifier and diluting the concentrate with water to the desired concentration. To test for protective activity, young tomato plants are sprayed with the preparation of active compound at the stated application rate. […] Subsequently the plants stand at 96% relative humidity and a temperature of 20° C. After 7 days following inoculation, evaluation takes place.

The next data set relates to Phytophthora infestans. Type of data set: in vivo. The note with it: young tomato plants, protective spray, 1500 ppm, evaluation 7 days following inoculation.
The next data set has as its system Plasmopara viticola. In words: Plasmopara test (grapevine)/protective. The note with it: young grapevine plants, protective spray, 250 ppm, evaluation 6 days following inoculation. Format: in vivo.
The next data set concerns Puccinia recondita. In words: Puccinia test (wheat)/protective. The note with it: young wheat plants, protective spray, 1500 ppm, evaluation 7-9 days following inoculation. Type of data set: in vivo. The source says: Puccinia Test (Wheat)/Protective • Solvent: 49 parts by weight of N,N-dimethylformamide • Emulsifier: 1 part by weight of alkylaryl polyglycol ether An appropriate preparation of active compound is produced by mixing 1 part by weight of active compound with the stated amounts of solvent and emulsifier and diluting the concentrate with water to the desired concentration. To test for protective activity, young wheat plants are sprayed with the preparation of active compound at the stated application rate. […] Subsequently the plants stand at 80% relative humidity and at a temperature of 20° C. After 7-9 days following inoculation, evaluation takes place.

The next data set deals with Venturia inaequalis. In words: Venturia test (apple)/protective. The note with it: young apple plants, protective spray, 250 ppm, evaluation 10 days following inoculation. Type of data set: in vivo. As to the method: Venturia Test (Apple)/Protective […] An appropriate preparation of active compound is produced by mixing 1 part by weight of active compound with the stated amounts of solvent and emulsifier and diluting the concentrate with water to the desired concentration. To test for protective activity, young plants are sprayed with the preparation of active compound at the stated application rate. […] Subsequently the plants are placed in a greenhouse at approximately 21° C. and approximately 90% humidity. After 10 days following inoculation, evaluation takes place.

Each structure is given as a SMILES string.

Turning to `N#CC1=C(C#N)Sc2c(c(=O)n3n(c2=O)CCCC3)S1` [Compound 2, 5,12-dioxo-5,7,8,9,10,12-hexahydro[1,4]dithiino[2,3-d]pyridazino[1,2-a]pyridazine-2,3-dicarbonitrile], the chromatographic logP in data set [1] (HPLC, C18, 43° C., acidic range pH 2.7 (0.1% aqueous formic acid/acetonitrile), read-out: Log P) came out at 1.74. Further, the Efficacy in % in the data set on Alternaria solani is 93%; in the data set with Phytophthora infestans it was 88%; with Plasmopara viticola it was 100%; in the data set with Puccinia recondita, 95%; with Venturia inaequalis, 89%.
For the compound `N#CC1=C(C#N)Sc2c(c(=O)n3n(c2=O)CCC3)S1` [Compound 8], the log partition coefficient (Log P) (as a rule, the decadic logarithm of the partition coefficient of the neutral form, usually between octanol and water) in data set [1] came to 1.20. The values for the Efficacy in % with Alternaria solani, in the data set on Phytophthora infestans and in the data set on Puccinia recondita were 86%, 75% and 95%, respectively.
Turning to `CCn1c(=O)c2c(c(=O)n1C)SC(C#N)=C(C#N)S2` [Compound 9], in data set [1], the “Log P” value is reported as 1.72. For the same compound, the Efficacy in % in the data set with Alternaria solani is given as 86%; in the data set on Phytophthora infestans, 94%; in the data set with Plasmopara viticola, 93%; in the data set on Puccinia recondita, 95%; with Venturia inaequalis, 86%.
With `CCn1c(=O)c2c(c(=O)n1CC)SC(C#N)=C(C#N)S2` [Compound 3], the lipophilicity (Log P) in data set [1] is 2.05. For the same compound, the Efficacy in % stood at 86% in the data set on Alternaria solani, 75% with Phytophthora infestans and 95% in the data set on Puccinia recondita.
Regarding `CCCn1c(=O)c2c(c(=O)n1CC)SC(C#N)=C(C#N)S2` [Compound 5], in data set [1], the lipophilicity (Log P) came out at 2.46. For the same compound, the Efficacy in % came to 93% in the data set on Alternaria solani; 94% in the data set with Phytophthora infestans; 95% in the data set on Plasmopara viticola; 95% in the data set on Puccinia recondita; 95% in the data set with Venturia inaequalis.
On to `CCCn1c(=O)c2c(c(=O)n1CCC)SC(C#N)=C(C#N)S2` [Compound 4], for which, in data set [1], the “Log P” value was determined as 2.80. Moreover, the Efficacy in % came out at 93% in the data set with Alternaria solani, 94% in the data set with Phytophthora infestans and 95% with Puccinia recondita.
The corresponding values for `CCCn1c(=O)c2c(c(=O)n1C)SC(C#N)=C(C#N)S2` [Compound 7] are 2.08, 93%, 88% and 80%.
Regarding `N#CC1=C(C#N)Sc2c(c(=O)n3n(c2=O)CCOCC3)S1` [Compound 6], in data set [1], the “Log P” value is listed as 1.51. The Efficacy in % in the data set with Alternaria solani worked out at 86%; in the data set on Phytophthora infestans, 75%; in the data set on Puccinia recondita it was 95%.
As to `Cn1c(=O)c2c(c(=O)n1C)Sc1c(c(=O)n(C)n(C)c1=O)S2` [Compound 10], in data set [1], the “Log P” value is reported as 0.74.
Regarding `Cn1c(=O)c2c(c(=O)n1C)SC(C#N)=C(C#N)S2` [Compound 1], the “Log P” value in data set [1] is recorded as 1.39. The compound further gave an Efficacy in % with Puccinia recondita of 90%.

Values taken from patent US8530387B2, “Dithiinopyridazinone derivatives” (Bayer CropScience AG, priority 2010, dated 2013).
